Patent US9126973B2, “Multiheteroaryl compounds as inhibitors of H-PGDS and their use for treating prostaglandin D2 mediated diseases” (Cayman Chemical Company, Incorporated, priority 2008, dated 2015)

How the values were obtained:
[1] = target: H-PGDS (Homo sapiens (Human), UniProt O60760); assay: H-PGDS Fluorescence Polarization Binding Assay (FPBA); conditions: H-PGDS-MBP fusion enzyme, fluorescent probe, reduced glutathione 5 mM, 60-90 minutes at room temperature, 96-well format
Experimental: H-PGDS Fluorescence Polarization Binding Assay This assay essentially is available from Cayman Chemical Company as Catalog item #600007. The test data reported for the aforementioned Examples (H-PGDS FPBA IC50) were generated using a 96-well, instead of the 384-well, format. […] Assays were performed in 96-well microtiter plates in 100 μL of total sample volume. Excitation and emission wavelengths appropriate for the employed detection analyte were used. […] Twelve clean microfuge tubes were labeled A1 through A12. […] Dimethyl sulfoxide (50 μL) was added to each of tubes A1 through A11. The HQL-79 control solution was serially diluted by removing 50 μL from tube A12 and placing it in tube A11 with subsequent thorough mixing of the contents of tube A11. Next, 50 μL was removed from tube A11 and was placed into tube A10 with subsequent thorough mixing of the contents of tube A10. This process was repeated for tubes A9 through A2. […] A test compound may be dissolved in DMSO, ethanol, or methanol at several concentrations when the titration endpoint is unknown. […] Assay cocktail (95 μL) was added to each plate well. DMSO (5 μL) from microfuge tube A1 was added to each plate well A1 and B1. Positive control solution (5 μL) from microfuge tube A2 was added to each plate well A2 and B2. Positive control solution (5 μL) from microfuge tube A3 was added to each plate well A3 and B3. This procedure was continued until all the positive control standard dilutions were aliquoted. Test compound solutions (5 μL) were added to the wells. […] The IC50 for a particular test compound was obtained by performing a full concentration titration versus a full concentration titration of positive control. Comparison of a single concentration of a test compound to the maximum binding well provided an assessment of the relative affinity of the test compound for H-PGDS-MBP. The plate was covered and incubated for 60-90 minutes at room temperature. The FP signal is stable for at least two hours. […] The measurements were taken in the fluorescent polarization mode with the z-height set to the middle of the well and the G-factor set to 1.13 on a Tecan Safire 2 reader.

H-PGDS, sequence (O60760 whole entry, the tested form may be a part): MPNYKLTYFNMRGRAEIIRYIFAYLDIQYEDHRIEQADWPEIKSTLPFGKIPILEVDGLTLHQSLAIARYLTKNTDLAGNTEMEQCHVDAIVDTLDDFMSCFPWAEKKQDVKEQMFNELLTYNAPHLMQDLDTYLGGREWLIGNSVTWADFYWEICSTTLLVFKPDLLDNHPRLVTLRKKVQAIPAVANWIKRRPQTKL

| SMILES | melting point [°C] | IC50 [1] [nM] |
| --- | --- | --- |
| c1ccc(-c2ncc(-c3cnc[nH]3)cn2)cc1 [Example 5, 5-(1H-imidazol-5-yl)-2-phenylpyrimidine] | 216 | 5000 |
| c1ccc(CN2CCCC(c3ncc(-c4cnc(-c5ccccc5)nc4)[nH]3)C2)cc1 (racemic) [Example 23, (±)-5-(2-(1-benzylpiperidin-3-yl)-1H-imidazol-5-yl)-2-phenylpyrimidine] | 179 | 600 |
| c1ccc(Cn2cncc2-c2cnc(-c3ccccc3)nc2)cc1 [Example 33, 5-(1-benzyl-1H-imidazol-5-yl)-2-phenylpyrimidine] | 140 | 2000 |
| CC(C)(C)OC(=O)N1CCCC(c2ncc(-c3cnc(-c4ccccc4)nc3)[nH]2)C1 (racemic) [Example 21, (±)-tert-butyl 3-(5-(2-phenylpyrimidin-5-yl)-1H-imidazol-2-yl)piperidine-1-carboxylate] | 130 | 200 |
| OC(N1CCCC(c2ncc(-c3cnc(-c4ccccc4)nc3)[nH]2)C1)C(F)(F)F (centres unmarked) [Example 24, 2,2,2-trifluoro-1-(3-(4-(2-phenylpyrimidin-5-yl)-1H-imidazol-2-yl)piperidin-1-yl)ethanol] | – | 10000 |
| c1ccc(-c2ncc(-c3nnn[nH]3)cn2)cc1 [Example 43, 2-phenyl-5-(1H-tetrazol-5-yl)pyrimidine] | 237 | 2500 |
| O=C(N1CCCC(c2nc(-c3cnc(-c4ccccc4)nc3)c[nH]2)C1)C(F)(F)F (racemic) [Example 27, (±)-2,2,2-trifluoro-1-(3-(4-(2-phenylpyrimidin-5-yl)-1H-imidazol-2-yl)piperidin-1-yl)methanone] | – | 90 |
| CNC(=O)N1CCCC(c2ncc(-c3cnc(-c4ccccc4)nc3)[nH]2)C1 (racemic) [Example 25B, (±)-N-methyl-3-(5-(2-phenylpyrimidin-5-yl)-1H-imidazol-2-yl)piperidine-1-carboxamide] | – | 300 |
| c1ccc(-c2ncc(-c3cnc(C4CCNCC4)[nH]3)cn2)cc1 [Example 18, 2-phenyl-5-(2-(piperidin-4-yl)-1H-imidazol-5-yl)pyrimidine] | – | 1000 |
| c1ccc(-c2ncc(-c3cnc(C4CCNC4)[nH]3)cn2)cc1 (racemic) [Example 30, (±)-2-phenyl-5-(2-(pyrrolidin-3-yl)-1H-imidazol-5-yl)pyrimidine] | – | 2000 |
| CC(=O)N1CCCC(c2nc(-c3cnc(-c4ccccc4)nc3)c[nH]2)C1 (centres unmarked) [1-(3-(4-(2-phenylpyrimidin-5-yl)-1H-imidazol-2-yl)piperidin-1-yl)ethanone] | – | 90 |
| CNC(=O)N1CCCC(c2nc(-c3cnc(-c4ccccc4)nc3)cn2C(=O)NC)C1 (racemic) [Example 25A, (±)-N-methyl-3-(1-(methylcarbamoyl)-4-(2-phenylpyrimidin-5-yl)-1H-imidazol-2-yl)piperidine-1-carboxamide] | – | 620 |
| CC(C)(C)OC(=O)N1CCC(c2ncc(-c3cnc(-c4ccccc4)nc3)[nH]2)CC1 [Example 17, tert-butyl 4-(5-(2-phenylpyrimidin-5-yl)-1H-imidazol-2-yl)piperidine-1-carboxylate] | – | 150 |
| c1ccc(-c2ncc(-c3cn(C(c4ccccc4)(c4ccccc4)c4ccccc4)cn3)cn2)cc1 [Example 34 (Step A), 2-phenyl-5-(1-trityl-1H-imidazol-4-yl)pyrimidine] | – | > 20000 |
| CC(C)(C)OC(=O)N1CCC(c2ncc(-c3cnc(-c4ccccc4)nc3)[nH]2)C1 (racemic) [Example 28, (±)-tert-butyl 3-(5-(2-phenylpyrimidin-5-yl)-1H-imidazol-2-yl)pyrrolidine-1-carboxylate] | 219 | – |
| c1ccc(-c2cc(-c3cnc(-c4ccccc4)nc3)[nH]n2)cc1 [Example 45, 2-phenyl-5-(3-phenyl-1H-pyrazol-5-yl)pyrimidine] | – | 1500 |
| c1ccc(Cn2c(-c3ccccc3)cnc2-c2cnc(-c3ccccc3)nc2)cc1 [Example 44 (Step B), 5-(1-benzyl-5-phenyl-1H-imidazol-2-yl)-2-phenylpyrimidine] | – | 15000 |
| c1ccc(Cn2c(-c3cnc(-c4ccccc4)nc3)cnc2-c2ccccc2)cc1 [Example 1 (Step C), 5-(1-benzyl-2-phenyl-1H-imidazol-5-yl)-2-phenylpyrimidine] | – | 15000 |

The next lines start with the values.

| melting point [°C] | IC50 [1] [nM] | SMILES |
| --- | --- | --- |
| 228 to 231 | 125000 | c1ccc(-c2ncc(-c3cnc(-c4ccccc4)o3)cn2)cc1 [Example 46, 2-phenyl-5-(2-phenylpyrimidin-5-yl)oxazole] |
| 228 | > 20000 | Fc1cccc(-c2nc(-c3cnc(-c4ccccc4)nc3)cs2)c1 [Example 58, 2-(3-fluorophenyl)-4-(2-phenylpyrimidin-5-yl)thiazole] |
| – | > 20000 | Cc1nc(-c2ccccc2)sc1-c1cnc(-c2cccnc2)n1Cc1ccccc1 [Example 71, 5-(1-benzyl-2-(pyridin-3-yl)-1H-imidazol-5-yl)-4-methyl-2-phenylthiazole] |
| – | 2500 | O=C(NCCN1CCOCC1)c1csc(-c2cnc(-c3ccccc3)nc2)n1 [Example 65, N-(2-morpholinoethyl)-2-(2-phenylpyrimidin-5-yl)thiazole-4-carboxamide] |
| – | 1100 | O=C(O)c1csc(-c2cnc(-c3ccccc3)nc2)n1 [Example 63, 2-(2-Phenylpyrimidin-5-yl)thiazole-4-carboxylic acid] |
| 214.4 to 216.1 | > 20000 | c1ccc(-c2ncc(-c3csc(-c4ccccc4)n3)cn2)cc1 [Example 48, 2-phenyl-4-(2-phenylpyrimidin-5-yl)thiazole] |
| – | > 10000 | Cc1ccc(-c2cnc(-c3cccnc3)[nH]2)cn1 [Example 66, 2-methyl-5-(2-(pyridin-3-yl)-1H-imidazol-5-yl)pyridine] |
| – | 20000 | Cn1nnnc1-c1cnc(-c2ccccc2)nc1 [Example 73B, 5-(1-methyl-1H-tetrazol-5-yl)-2-phenylpyrimidine] |
| – | 5900 | CC(C)(C)OC(=O)c1csc(-c2cnc(-c3ccccc3)nc2)n1 [Example 62, tert-butyl 2-(2-phenylpyrimidin-5-yl)thiazole-4-carboxylate] |
| – | 10000 | Cn1nnc(-c2cnc(-c3ccccc3)nc2)n1 [Example 73A, 5-(2-methyl-2H-tetrazol-5-yl)-2-phenylpyrimidine] |
| – | > 10000 | Cc1ccc(-c2cnc(-c3cccnc3)n2Cc2ccccc2)cn1 [Example 66 (Step A), 5-(1-benzyl-2-(pyridin-3-yl)-1H-imidazol-5-yl)-2-methylpyridine] |
| 178 to 180 | – | CC(C)(C)OC(=O)N1CCC(n2nnc(-c3cnc(-c4ccccc4)nc3)n2)CC1 [Example 52, tert-butyl 4-(5-(2-phenylpyrimidin-5-yl)-2H-tetrazol-2-yl)piperidine-1-carboxylate] |
| – | > 20000 | c1ccc(-c2ncc(-c3ncc(-c4ccccc4)o3)cn2)cc1 [Example 47, 5-phenyl-2-(2-phenylpyrimidin-5-yl)oxazole] |
| – | 1300 | c1ccc(-c2ncc(-c3cc(-c4cccnc4)n[nH]3)cn2)cc1 [Example 53, 2-phenyl-5-(3-(pyridin-3-yl)-1H-pyrazol-5-yl)pyrimidine] |
| – | 5000 | O=C(O)c1cc(-c2cnc(Oc3ccccc3)nc2)[nH]n1 [Example 56, 5-(2-phenoxypyrimidin-5-yl)-1H-pyrazole-3-carboxylic acid] |
